Measurements taken from patent publication US11014911B2, “CDK2 inhibitors” (Pfizer Inc., priority 2019, dated 2021).

What was measured:
[1] = molecular target: CDK2/Cyclin E1 full length (Homo sapiens (Human), UniProt P24941); experiment: CDK2/Cyclin E1 full length mobility shift assay; type: biochemical
[2] = molecular target: GSK3β (H350L) (Homo sapiens (Human), UniProt P49841); settings: read-out: GSK3β Ki
Chain of GSK3β (H350L) (P49841 whole entry, stated change not applied): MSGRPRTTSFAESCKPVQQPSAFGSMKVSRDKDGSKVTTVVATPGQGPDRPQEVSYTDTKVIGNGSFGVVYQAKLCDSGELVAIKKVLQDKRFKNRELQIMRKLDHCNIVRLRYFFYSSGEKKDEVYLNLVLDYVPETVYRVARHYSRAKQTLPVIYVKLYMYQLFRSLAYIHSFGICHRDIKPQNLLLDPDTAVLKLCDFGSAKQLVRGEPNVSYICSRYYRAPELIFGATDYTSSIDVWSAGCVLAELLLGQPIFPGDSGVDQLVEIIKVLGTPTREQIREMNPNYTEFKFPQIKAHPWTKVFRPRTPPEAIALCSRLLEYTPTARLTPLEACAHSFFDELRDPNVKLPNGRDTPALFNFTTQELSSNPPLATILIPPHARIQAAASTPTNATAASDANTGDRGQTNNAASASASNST
Protocol: The assay was initiated with the addition of ATP, following 15 minutes pre-incubation of enzyme and inhibitor at room temperature in the reaction mixture. The reaction was stopped after 30 minutes at room temperature by the addition of 50 μL of 80 mM EDTA.

| SMILES | Ki [1] [nM] | Ki [2] [nM] |
| --- | --- | --- |
| Cc1cnc(CC(=O)Nc2cc([C@@H]3CC[C@H](OC(=O)NC(C)C)C3)[nH]n2)o1 [Example 270, (1S,3R)-3-(3-{[(5-methyl-1,3-oxazol-2-yl)acetyl]amino}-1H-pyrazol-5-yl)cyclopentyl propan-2-ylcarbamate] | 0.86 | 39.9 |
| CC(C)(C)NC(=O)O[C@@H]1CC[C@H](c2cc(NC(=O)Cc3cnc(C(F)(F)F)cn3)n[nH]2)C1 [Example 317, (1R,3S)-3-[3-({[5-(trifluoromethyl)pyrazin-2-yl]acetyl}amino)-1H-pyrazol-5-yl]cyclopentyl tert-butylcarbamate] | 0.26 | 46 |
| CC[C@H](C)NC(=O)O[C@@H]1CC[C@H](c2cc(NC(=O)Cc3cc(C)ncc3S(C)(=O)=O)n[nH]2)C1 [Example 373, (1R,3S)-3-[3-({[2-methyl-5-(methylsulfonyl)pyridin-4-yl]acetyl}amino)-1H-pyrazol-5-yl]cyclopentyl (2S)-butan-2-ylcarbamate] | 0.47 | 74.3 |
| CC[C@H](C)NC(=O)O[C@@H]1CC[C@H](c2cc(NC(=O)Cc3cnc4ncnn4c3)n[nH]2)C1 [Example 39] | 0.14 | 23.9 |
| CCCNC(=O)O[C@H]1CC[C@@H](c2cc(NC(=O)c3ccc(OC)nc3)n[nH]2)C1 [Example 182, (1S,3R)-3-(3-{[(6-methoxypyridin-3-yl)carbonyl]amino}-1H-pyrazol-5-yl)cyclopentyl propylcarbamate] | 0.82 | 90.6 |
| CCCNC(=O)O[C@H]1CC[C@@H](c2cc(Nc3ccc4c(n3)CC[C@@H]4N(C)C)n[nH]2)C1 [Example 192, (1S,3R)-3-(3-{[(5S)-5-(dimethylamino)-6,7-dihydro-5H-cyclopenta[b]pyridin-2-yl]amino}-1H-pyrazol-5-yl)cyclopentyl propylcarbamate] | 0.7 | > 191 |
| CC[C@H](C)NC(=O)O[C@@H]1CC[C@H](c2cc(NC(=O)Cc3cc(C)on3)n[nH]2)C1 [Example 332, (1R,3S)-3-(3-{[(5-methyl-1,2-oxazol-3-yl)acetyl]amino}-1H-pyrazol-5-yl)cyclopentyl (2S)-butan-2-ylcarbamate] | 1.05 | 61.3 |
| CCCNC(=O)O[C@@H]1CC[C@H](c2cc(NC(=O)Cc3cnc(OC)s3)n[nH]2)C1 [Example 190, (1R,3S)-3-(3-{[(2-methoxy-1,3-thiazol-5-yl)acetyl]amino}-1H-pyrazol-5-yl)cyclopentyl propylcarbamate] | 0.81 | 26.1 |
| COc1ccc(CC(=O)Nc2cc([C@H]3CC[C@@H](OC(=O)NCC(F)F)C3)[nH]n2)cn1 [Example 252, (1R,3S)-3-(3-{[(6-methoxypyridin-3-yl)acetyl]amino}-1H-pyrazol-5-yl)cyclopentyl (2,2-difluoroethyl)carbamate] | 1.39 | 10.6 |
| CC[C@H](C)NC(=O)O[C@@H]1CC[C@H](c2cc(NC(=O)Cc3cncc(OC)n3)n[nH]2)C1 [Example 348, (1R,3S)-3-(3-{[(6-methoxypyrazin-2-yl)acetyl]amino}-1H-pyrazol-5-yl)cyclopentyl (2S)-butan-2-ylcarbamate] | 0.59 | 54.1 |
| CCCNC(=O)O[C@H]1CC[C@@H](c2cc(NC(=O)Cc3ccnc(OC)c3)n[nH]2)C1 [Example 19] |  | 20.8 |
| COc1ccc(CC(=O)Nc2cc([C@@H]3CC[C@H](OC(=O)N4CCC4(C)C)C3)[nH]n2)cn1 [Example 145] |  | 0.95 |
| CC[C@H](C)NC(=O)O[C@@H]1CC[C@H](c2cc(NC(=O)Cc3ccccc3S(C)(=O)=O)n[nH]2)C1 [Example 370, (1R,3S)-3-[3-({[2-(methylsulfonyl)phenyl]acetyl}amino)-1H-pyrazol-5-yl]cyclopentyl (2S)-butan-2-ylcarbamate] |  | 50.8 |
| C[C@H]1CCCN1C(=O)O[C@@H]1CC[C@H](c2cc(NC(=O)Cc3ccn(C)n3)n[nH]2)C1 [Example 631, (1R,3S)-3-(3-{[(1-methyl-1H-pyrazol-3-yl)acetyl]amino}-1H-pyrazol-5-yl)cyclopentyl (2S)-2-methylpyrrolidine-1-carboxylate] |  | 11.8 |
| C[C@H]1CCCN1C(=O)O[C@@H]1CC[C@H](c2cc(NC(=O)Cc3ccn(C)n3)n[nH]2)C1 [Example 140] |  | 15.3 |
| CCCNC(=O)O[C@@H]1CC[C@H](c2cc(NC(=O)Cc3ccnc(OC)c3)[nH]n2)C1 [Example 1, (1R,3S)-3-(3-{[(2-methoxypyridin-4-yl)acetyl]amino}-1H-pyrazol-5-yl)cyclopentyl propylcarbamate] |  | 26.2 |
| COc1cc(CC(=O)Nc2cc([C@H]3CC[C@@H](OC(=O)NC(C)C(C)(F)F)C3)[nH]n2)ccn1 (single isomer, unassigned) [Example 392] | 3.14 |  |
| CCCNC(=O)O[C@@H]1CC[C@H](c2cc(NC(=O)c3ccnn3CCN(C)C)n[nH]2)C1 [Example 195, (1R,3S)-3-{3-[({1-[2-(dimethylamino)ethyl]-1H-pyrazol-5-yl}carbonyl)amino]-1H-pyrazol-5-yl}cyclopentyl propylcarbamate] | 4.39 |  |
| COc1cc(CC(=O)Nc2cc([C@H]3CC[C@@H](OC(=O)N[C@@H](C)[C@H](C)F)C3)[nH]n2)ccn1 (single isomer, unassigned) [Example 384, (1R,3S)-3-(3-{[(2-methoxypyridin-4-yl)acetyl]amino}-1H-pyrazol-5-yl)cyclopentyl [(2S*,3S*)-3-fluorobutan-2-yl]carbamate] | 1.24 |  |
| CC(C)NC(=O)O[C@@H]1CC[C@H](c2cc(NC(=O)Cc3cccc4scnc34)n[nH]2)C1 [Example 283, (1R,3S)-3-{3-[(1,3-benzothiazol-4-ylacetyl)amino]-1H-pyrazol-5-yl}cyclopentyl propan-2-ylcarbamate] | 4.6 |  |
| CCCNC(=O)O[C@@H]1CC[C@H](c2cc(NC(=O)Cc3cccc4ncsc34)n[nH]2)C1 [Example 196, (1R,3S)-3-{3-[(1,3-benzothiazol-7-ylacetyl)amino]-1H-pyrazol-5-yl}cyclopentyl propylcarbamate] | 1.44 |  |
| CCNC(=O)O[C@@H]1CC[C@H](c2cc(NC(=O)Cc3cnc(C)s3)n[nH]2)C1 [Example 229, (1R,3S)-3-(3-{[(2-methyl-1,3-thiazol-5-yl)acetyl]amino}-1H-pyrazol-5-yl)cyclopentyl ethylcarbamate] | 2.06 |  |
| C[C@@H](CF)NC(=O)O[C@@H]1CC[C@H](c2cc(NC(=O)Cc3cnn(C)c3)n[nH]2)C1 [Example 378, (1R,3S)-3-(3-{[(1-methyl-1H-pyrazol-4-yl)acetyl]amino}-1H-pyrazol-5-yl)cyclopentyl [(2S)-1-fluoropropan-2-yl]carbamate] | 0.83 |  |
| Cc1ccnc(CC(=O)Nc2cc([C@H]3CC[C@@H](OC(=O)NC4(C)CC4)C3)[nH]n2)c1 [Example 425, (1R,3S)-3-(3-{[(4-methylpyridin-2-yl)acetyl]amino}-1H-pyrazol-5-yl)cyclopentyl (1-methylcyclopropyl)carbamate] | 1.05 |  |
| COc1cc(CC(=O)Nc2cc([C@H]3CC[C@@H](OC(=O)NCC(F)(F)F)C3)[nH]n2)ccn1 [Example 255, (1R,3S)-3-(3-{[(2-methoxypyridin-4-yl)acetyl]amino}-1H-pyrazol-5-yl)cyclopentyl (2,2,2-trifluoroethyl)carbamate] | 1.69 |  |
